Values after ≈ are worked out from the molar mass of the structure shown. Like-named read-outs stand apart in the source and are kept apart here.
What was measured:
[1] = tested on: M. avium; test: MIC by resazurin (REMA) assay against Mycobacterium, test strain 21; type: cell-based
Experimental: (§1) In order to test the antibacterial activity, the medium of Mycobacterium cultured to late log phase was diluted so as to be 4.0×10^5 cells/well in Middlebrook 7H10 agar medium (Difco) supplemented with 10% oleic acid, albumin, dextrose, catalase (OADC, Becton Dickinson) and 0.05% Tween 80 (Sigma Aldrich) and was dispensed into a 96-well plate. The compounds were treated so that DMSO was 1%, and after 3 days, a 0.025% resazurin (REMA) solution was dispensed, and the growth of the bacteria was confirmed after culturing. The MIC value was measured for the antibacterial activity through resazurin (excitation 530 nm, emission 590 nm).

[2] = tested on: S. aureus^MS; test: MIC by broth microdilution (aerobic pathogens), test strain 2; type: cell-based; details: Staphylococcus aureus
Experimental: (§2) The antibacterial activity of the compounds of Examples 1 to 48 of the present invention against aerobic pathogens were evaluated by measuring the minimum concentration of the antibiotic capable of inhibiting bacterial growth by 90% compared to the growth of the non-drug treated control group. MIC was measured by the broth microdilution method based on CLSI standards [Reference: Clinical and Laboratory Standards Institute Document. (2000) Methods for Dilution Antimicrobial Susceptibility Test for Bacteria that Grow Aerobically-Fifth Edition: M7-A5. CLSI, Villanova, PA].
(§3) All 13 strains such as methicillin susceptible Staphylococcus aureus (MSSA), methicillin resistant Staphylococcus aureus (MRSA), Vancomycin resistant Staphylococcus aureus (VRSA), Staphylococcus epidermidis, methicillin resistant Staphylococcus epidermidis, Enterococcus faecalis, Vancomycin resistant Enterococcus faecalis, Enterococcus faecium, Vancomycin resistant Enterococcus faecium were used.

[3] = tested on: M. abscessus; test: MIC by resazurin (REMA) assay against Mycobacterium, test strain 23; type: cell-based; details: Mycobacteroides abscessus; test strain 23, M. abscessus, resazurin; read-out: MIC
Experimental: as §1

[4] = tested on: S. aureus^MS; test: MIC by broth microdilution (aerobic pathogens), test strain 1; type: cell-based; details: Staphylococcus aureus
Experimental: as §2, §3

[5] = tested on: M. intracelluare; test: MIC by resazurin (REMA) assay against Mycobacterium, test strain 22; type: cell-based; details: Mycobacterium intracellulare; test strain 22, M. intracelluare, resazurin; read-out: MIC
Experimental: as §1

[6] = tested on: S. epidermis^MR; test: MIC by broth microdilution (aerobic pathogens), test strain 6; type: cell-based, Methicillin resistant Staphylococcus epidermidis; details: Staphylococcus epidermidis
Experimental: as §2, §3

[7] = tested on: S. epidermis; test: MIC by broth microdilution (aerobic pathogens), test strain 5; type: cell-based; details: Staphylococcus epidermidis
Experimental: as §2, §3

[8] = tested on: E. faecium^VRE; test: MIC by broth microdilution (aerobic pathogens), test strain 11; type: cell-based, Vancomycin resistant Enterococcus faecium; details: Enterococcus faecium
Experimental: as §2, §3

[9] = tested on: E. faecium; test: MIC by broth microdilution (aerobic pathogens), test strain 10; type: cell-based; details: Enterococcus faecium
Experimental: as §2, §3

[10] = tested on: E. faecalis; test: MIC by broth microdilution (aerobic pathogens), test strain 7; type: cell-based; details: Enterococcus faecalis
Experimental: as §2, §3

[11] = tested on: E. faecalis^LinR; test: MIC by broth microdilution (aerobic pathogens), test strain 9; type: cell-based, Linezolid resistant Enterococcus faecalis; details: Enterococcus faecalis
Experimental: as §2, §3

[12] = tested on: E. faecalis^VanA; test: MIC by broth microdilution (aerobic pathogens), test strain 8; type: cell-based, Vancomycin resistant Enterococcus faecalis; details: Enterococcus faecalis
Experimental: as §2, §3

[13] = tested on: S. aureus^VR; test: MIC by broth microdilution (aerobic pathogens), test strain 4; type: cell-based, Vancomycin resistant Staphylococcus aureus; details: Staphylococcus aureus
Experimental: as §2, §3

[14] = tested on: S. aureus^MR; test: MIC by broth microdilution (aerobic pathogens), test strain 3; type: cell-based, Methicillin resistant Staphylococcus aureus; details: Staphylococcus aureus
Experimental: as §2, §3

[15] = tested on: E. faecium^LinR; test: MIC by broth microdilution (aerobic pathogens), test strain 12; type: cell-based, Linezolid resistant Enterococcus faecium; details: Enterococcus faecium
Experimental: as §2, §3

[16] = tested on: C. difficile 174; test: MIC by agar dilution against Clostridioides difficile, test strain 18; type: cell-based
[17] = tested on: C. difficile 152; test: MIC by agar dilution against Clostridioides difficile, test strain 14; type: cell-based
[18] = tested on: C. difficile 159; test: MIC by agar dilution against Clostridioides difficile, test strain 15; type: cell-based
[19] = tested on: C. difficile 161; test: MIC by agar dilution against Clostridioides difficile, test strain 16; type: cell-based
[20] = tested on: C. difficile 9689; test: MIC by agar dilution against Clostridioides difficile, test strain 13; type: cell-based
[21] = tested on: C. difficile 181; test: MIC by agar dilution against Clostridioides difficile, test strain 19; type: cell-based; details: test strain 19, C. difficile 181, anaerobic, agar dilution, read-out: MIC
[22] = tested on: C. difficile 173; test: MIC by agar dilution against Clostridioides difficile, test strain 17; type: cell-based; details: test strain 17, C. difficile 173, anaerobic, agar dilution, read-out: MIC
[23] = test strain 2, S. aureus^MS, read-out: MIC
[24] = test strain 1, S. aureus^MS, read-out: MIC
[25] = test strain 18, C. difficile 174, anaerobic, agar dilution, read-out: MIC
[26] = test strain 14, C. difficile 152, anaerobic, agar dilution, read-out: MIC
[27] = test strain 15, C. difficile 159, anaerobic, agar dilution, read-out: MIC
[28] = test strain 16, C. difficile 161, anaerobic, agar dilution, read-out: MIC
[29] = test strain 13, C. difficile 9689, anaerobic, agar dilution, read-out: MIC

| MIC [2, 23] | MIC [4, 24] | Compound | MIC [6] | MIC [7] | MIC ([8]; VRE) | MIC [2] | MIC [9] | MIC [10] | MIC [4] | MIC [11] | MIC [12] | MIC [13] | MIC [14] | MIC [15] | MIC [16, 25] | MIC [17, 26] | MIC [18, 27] | MIC [21] | MIC [22] | MIC [19, 28] | also measured |
| --- | --- | --- | --- | --- | --- | --- | --- | --- | --- | --- | --- | --- | --- | --- | --- | --- | --- | --- | --- | --- | --- |
| 0.5 µg/mL (≈ 0.402 µM) | 0.5 µg/mL (≈ 0.402 µM) | C/C=C1\NC(=O)[C@H]([C@@H](C)O)NC(=O)c2csc(n2)-c2ccc(-c3nc(-c4nc(C(=O)NC5(C(=O)NCCN6CCN(CCO)CC6)CC5)cs4)cs3)nc2-c2csc(n2)[C@H]([C@@H](C)O)NC(=O)c2csc(n2)[C@H](C(C)C)NC(=O)c2csc1n2 [Compound 32] | – | – | – | – | – | – | – | – | – | – | – | – | – | – | – | – | – | – | MIC ([1]; test strain 21, M. avium, resazurin, read-out: MIC): 0.153 µg/mL (≈ 0.123 µM); MIC [3]: 0.153 µg/mL (≈ 0.123 µM); MIC [5]: 0.116 µg/mL (≈ 0.0934 µM) |
| – | – | C/C=C1\NC(=O)[C@H]([C@@H](C)O)NC(=O)c2csc(n2)-c2ccc(-c3nc(-c4nc(C(=O)NC5(C(=O)NCCCN6C(=O)NC(C)C6=O)CC5)cs4)cs3)nc2-c2csc(n2)[C@H]([C@@H](C)O)NC(=O)c2csc(n2)[C@H](C(C)C)NC(=O)c2csc1n2 (stereo partly drawn) [Compound 37] | 0.25 µg/mL (≈ 0.202 µM) | 0.25 µg/mL (≈ 0.202 µM) | 1 µg/mL (≈ 0.806 µM) | 0.25 µg/mL (≈ 0.202 µM) | 0.5 µg/mL (≈ 0.403 µM) | 0.5 µg/mL (≈ 0.403 µM) | 0.25 µg/mL (≈ 0.202 µM) | 1 µg/mL (≈ 0.806 µM) | – | – | – | – | – | – | – | – | – | – | MIC [1]: 0.082 µg/mL (≈ 0.0661 µM) |
| – | – | C/C=C(\NC(=O)c1csc(-c2csc(-c3ccc4c(n3)-c3csc(n3)[C@H]([C@@H](C)O)NC(=O)c3csc(n3)[C@H](C(C)C)NC(=O)c3csc(n3)/C(=C/C)NC(=O)[C@H]([C@@H](C)O)NC(=O)c3csc-4n3)n2)n1)C(=O)NCCCN1C(=O)CNC1=O [Compound 40] | 0.25 µg/mL (≈ 0.204 µM) | 0.5 µg/mL (≈ 0.408 µM) | 1 µg/mL (≈ 0.815 µM) | 0.5 µg/mL (≈ 0.408 µM) | 0.5 µg/mL (≈ 0.408 µM) | 0.25 µg/mL (≈ 0.204 µM) | 0.5 µg/mL (≈ 0.408 µM) | 0.5 µg/mL (≈ 0.408 µM) | 0.5 µg/mL (≈ 0.408 µM) | 0.5 µg/mL (≈ 0.408 µM) | 1 µg/mL (≈ 0.815 µM) | 1 µg/mL (≈ 0.815 µM) | – | – | – | – | – | – | MIC [16]; 174: 0.5 µg/mL (≈ 0.408 µM); MIC [17]; 152: 0.5 µg/mL (≈ 0.408 µM); MIC [18]; 159: 1 µg/mL (≈ 0.815 µM); MIC [19]; 161: 0.5 µg/mL (≈ 0.408 µM); MIC [20]; 9689: 1 µg/mL (≈ 0.815 µM) |
| 1 µg/mL (≈ 0.815 µM) | 1 µg/mL (≈ 0.815 µM) | C/C=C(\NC(=O)c1csc(-c2csc(-c3ccc4c(n3)-c3csc(n3)[C@H]([C@@H](C)O)NC(=O)c3csc(n3)[C@H](C(C)C)NC(=O)c3csc(n3)/C(=C/C)NC(=O)[C@H]([C@@H](C)O)NC(=O)c3csc-4n3)n2)n1)C(=O)NCCn1cnc([N+](=O)[O-])n1 [Compound 42] | – | – | – | – | – | – | – | – | – | – | – | – | 0.5 µg/mL (≈ 0.408 µM) | 0.5 µg/mL (≈ 0.408 µM) | 0.5 µg/mL (≈ 0.408 µM) | 0.5 µg/mL (≈ 0.408 µM) | 0.5 µg/mL (≈ 0.408 µM) | 1 µg/mL (≈ 0.815 µM) | MIC ([6]; test strain 6, S. epidermis^MR (methicillin resistant), read-out: MIC): 0.5 µg/mL (≈ 0.408 µM); MIC ([7]; test strain 5, S. epidermis, read-out: MIC): 0.5 µg/mL (≈ 0.408 µM); MIC ([12]; test strain 8, E. faecalis^VanA (vancomycin resistant), read-out: MIC): 0.5 µg/mL (≈ 0.408 µM); MIC ([13]; test strain 4, S. aureus^VR (vancomycin resistant), read-out: MIC): 1 µg/mL (≈ 0.815 µM); MIC ([14]; test strain 3, S. aureus^MR (methicillin resistant), read-out: MIC): 1 µg/mL (≈ 0.815 µM); MIC ([8]; test strain 11, E. faecium^VRE (vancomycin resistant), read-out: MIC): 1 µg/mL (≈ 0.815 µM); MIC ([15]; test strain 12, E. faecium^LinR (linezolid resistant), read-out: MIC): 1 µg/mL (≈ 0.815 µM); MIC ([9]; test strain 10, E. faecium, read-out: MIC): 1 µg/mL (≈ 0.815 µM); MIC ([10]; test strain 7, E. faecalis, read-out: MIC): 0.5 µg/mL (≈ 0.408 µM); MIC ([11]; test strain 9, E. faecalis^LinR (linezolid resistant), read-out: MIC): 0.5 µg/mL (≈ 0.408 µM); MIC [20, 29]: 0.5 µg/mL (≈ 0.408 µM) |
| – | – | CN[C@H](CC(C)C)C(=O)N[C@H]1C(=O)N[C@@H](CC(N)=O)C(=O)N[C@H]2C(=O)N[C@H]3C(=O)N[C@H](C(=O)N[C@H](C(=O)O)c4cc(O)cc(O)c4-c4cc3ccc4O)[C@H](O)c3ccc(c(Cl)c3)Oc3cc2cc(c3O[C@@H]2O[C@H](CO)[C@@H](O)[C@H](O)[C@H]2O[C@H]2C[C@](C)(N)[C@H](O)[C@H](C)O2)Oc2ccc(cc2Cl)[C@H]1O [Van, Vancomycin, reference compound] | 0.5 µg/mL (≈ 0.345 µM) | 1 µg/mL (≈ 0.69 µM) | > 128 µg/mL | 0.25 µg/mL (≈ 0.173 µM) | 0.5 µg/mL (≈ 0.345 µM) | 1 µg/mL (≈ 0.69 µM) | 0.5 µg/mL (≈ 0.345 µM) | 1 µg/mL (≈ 0.69 µM) | > 128 µg/mL | > 128 µg/mL | 0.5 µg/mL (≈ 0.345 µM) | 0.5 µg/mL (≈ 0.345 µM) | 0.5 µg/mL (≈ 0.345 µM) | 1 µg/mL (≈ 0.69 µM) | 2 µg/mL (≈ 1.38 µM) | 0.5 µg/mL (≈ 0.345 µM) | 0.5 µg/mL (≈ 0.345 µM) | 1 µg/mL (≈ 0.69 µM) | MIC [20, 29]: 2 µg/mL (≈ 1.38 µM) |
